# Reference: patent US7739055B2, “Methods and systems for generating and evaluating peptides” (priority 2005, dated 2010)
# Where a SMILES comes first, the peptide text is derived from it.
# System: B. cereus
smiles,measurement,value
CC[C@H](C)[C@H](NC(=O)[C@H](CC(C)C)NC(=O)[C@H](C)NC(=O)[C@@H]1CCCN1C(=O)[C@H](C)NC(=O)[C@@H](NC(=O)[C@H](CCCCN)NC(=O)[C@@H](N)CCCNC(=N)N)C(C)C)C(=O)N[C@@H](CCCCN)C(=O)N[C@@H](CO)C(=O)N[C@@H](Cc1ccccc1)C(=O)N[C@H](C(=O)N[C@@H](Cc1ccccc1)C(=O)N[C@@H](CC(C)C)C(=O)N[C@@H](Cc1ccccc1)C(=O)N[C@@H](CCCCN)C(=O)N[C@@H](Cc1ccccc1)C(=O)N[C@@H](CCCCN)C(=O)N[C@@H](CCCCN)C(=O)NCC(=O)O)C(C)C [Shuffled 51] (H-RKVAPALIKSFVFLFKFKKG-OH; N-terminus and C-terminus assumed),MIC B. cereus,"+ (key: +: MIC greater than 256 ug/mL; ++: MIC greater than 128 ug/mL, not sufficiently soluble to test as 256 ug/mL)"
